Laboratory results from paper PMC11873239, “A covalent chemical probe for Chikungunya nsP2 cysteine protease with antialphaviral activity and proteome-wide selectivity” (Scientific Reports, 2025).
Like-named read-outs stand apart in the source and are kept apart here.

Legend:
CHIKV nsP2pro = CHIKV nsP2pro (Chikungunya virus, UniProt F2YI08); conditions: read-out: IC50 (CHIKV nsP2pro inhibition); cited from earlier work
EEEV-nLuc replicon [1] = assay: microbe, parasite or virus in culture; conditions: Eastern equine encephalitis virus, Fibroblast, in Homo sapiens, 24 h, read-out: IC50 (EEEV-nLuc replicon)
EEEV-nLuc replicon [2] = conditions: read-out: IC50 (EEEV-nLuc replicon)
[3] = tested on: 20 human cysteine proteases and three viral cysteine proteases

Row | SMILES | IC50 (CHIKV nsP2pro) | IC50 (EEEV-nLuc replicon [1]) | IC50 (EEEV-nLuc replicon [2]) | inhibition across cysteine protease panel [3]
1 | CCOc1ccccc1-c1cc2n(n1)C(CS(C)(=O)=O)CNC2=O (stereo not shown) [Compound 2] | > 40000 nM | – | – | –
2 | CCOc1ccccc1-c1cc(C(=O)NC/C=C/S(C)(=O)=O)on1 [Compound 3, (E)−3-(2-ethoxyphenyl)-N-(3-(methylsulfonyl)allyl)isoxazole-5-carboxamide] | – | 930 nM | 930 nM | no significant inhibition
